Data set [1] deals with Arabidopsis thaliana L. (Columbia ecotype, Col-0) seedlings. The data set can be described thus: Arabidopsis root sensitivity bioassay. The format is in vivo. The conditions noted are these: for root length, mean: 7-day-old seedlings. As to the method: Several bioassays such as the first bean internode, root growth and rice lamina inclination have been developed to evaluate the growth-promoting activity of BR derivatives. In this work, the activity of new BR analogues was evaluated using the Arabidopsis root sensitivity test because of its simplicity and high sensitivity for BRs.. The characteristic effect of exogenously applied BRs on light-grown Arabidopsis is dose-dependent—BRs in higher concentrations cause inhibition of root growth; vice versa, low concentrations are stimulating. The results obtained for 24-epiBL, which was used as a positive control, and the BR derivatives are shown in Figure 2, Figure 3 and Figure S21. […] A similar trend was shown for dimethylammonium hydrochloride 22a and morpholinium hydrochloride 22e with a long side chain. For numerical values of the average, SD and p-value, see Table S2.
The biological activity of the new BRs derivatives was tested by an Arabidopsis sensitivity bioassay which was performed according to [28]. Briefly, seedlings of Arabidopsis thaliana L. (Columbia ecotype, Col-0) were stratified for 2 days at 4 °C and germinated on vertical half-strength Murashige and Skoog (1% w/v sucrose) agar at 22 °C in a 16 h/8 h light–dark cycle. The plates contained concentrations of 24-epiBL (as positive control) and BR derivatives ranging from 0.1 to 10 nM, respectively 100 nM (for selected derivatives only). After 7 days, roots were straightened on solid media plates and scanned with an Epson high-resolution scanner. The entire root length was measured with ImageJ (http://rsbweb.nih.gov/ij/). For each treatment, more than 15 seedlings were analyzed in two biological repeats, and p-values were calculated with the two-tailed Student t-test using Excel software.
Figure 2 Effect of selected brassinosteroid derivatives on the inhibition of Arabidopsis root length. Seven-day-old Arabidopsis thaliana seedlings (Columbia ecotype, Col-0) were treated with DMSO as control/24epiBL/BR short side chain derivatives; (A)—amides, (B)—amines, (C)—ammonium hydrochlorides. For each treatment, more than 15 seedlings were analyzed in two biological repeats. Error bars represent SD. Asterisks represent significant changes (t-test); * represents p-value < 0.05, in comparison to control.
Figure 3 Effect of selected brassinosteroid derivatives on the inhibition of Arabidopsis root length. Seven-day-old Arabidopsis thaliana seedlings (Columbia ecotype, Col-0) were treated with DMSO as control/24epiBL/BR long side chain derivatives; (A)—amides, (B)—ammonium hydrochlorides. For each treatment, more than 15 seedlings were analyzed in two biological repeats. Error bars represent SD. Asterisks represent significant changes (t-test); * represents p-value < 0.05, in comparison to control.
Table S2: Data for figure 2, 3, and S21. P value <0.05(t-test), comparison to control.
control (mean ± SD) 16.3 ± 1.21
*only selected compounds were tested
mean(mm) SD t-test mean (mm) SD t-test mean (mm) SD t-test mean (mm) SD t-test
(1 picture or pasted object on this page, not shown here)

Data set [2] is described as follows: Calcein AM cytotoxicity assay, CEM. To be noted: human, CEM T-lymphoblastic leukemia cells, IC50 > 50 µM means inactive, read-out: Cytotoxic activity IC50. It counts as cell-based. The method, then: (§1) The effect of the prepared BRs derivatives on the viability (in Calcein AM assays) of BJ human fibroblasts (as an example of a “normal” cell line) and human cancer cell lines of various histopathological origins, including: T-lymphoblastic leukemia CEM, breast carcinoma MCF7 and cervical carcinoma cell line HeLa, was also studied. Cells of all these lines were exposed to six 3-fold dilutions of each drug for 72 h prior to determination of cell survival. The IC50 (concentration leading to 50% inhibition of viability) values obtained from the Calcein AM cytotoxicity assay were calculated. […] All tested BR nitrogen-containing derivatives had no detectable activity, even when tested in concentrations of up to 50 µM.
(§2) The screening cell lines: T-lymphoblastic leukemia CEM; breast carcinoma MCF7 (estrogen-sensitive); cervical carcinoma cell line HeLa; and human foreskin fibroblasts BJ, were obtained from the American Type Culture Collection (Manassas, VA, USA). Cells were cultured in DMEM (Dulbecco’s Modified Eagle Medium, Sigma, St. Louis, MO, USA). Media used were supplemented with 10% fetal bovine serum, 2mM L-glutamine and 1% penicillin–streptomycin. The cell lines were maintained under standard cell culture conditions at 37 °C and 5% CO2 in a humid environment.
(§3) Cells were subcultured twice or three times a week using the standard trypsinization procedure. Cytotoxicity in cancer cell lines after 72 h was determined as described earlier. Control cultures were treated with DMSO alone, and the final concentration of DMSO in the mixture never exceeded 0.6%. Six serial 3-fold dilutions of the test substances were added at time zero in 20 μL aliquots to the microtiter plate wells and the highest final concentration in the wells was 50 μM.
(§4) Table S3: Cytotoxic activities, IC50 (µM/L)a, of compounds in three tumor and one normal fibroblast
(§5) Compound CEM MCF7 HeLa BJ
(§6) a The lowest concentration that kills 50% of cells.
(§7) b Increase of cell proliferation.

The nature of data set [3]: Calcein AM cytotoxicity assay, MCF7. It counts as cell-based. To be noted: human, MCF7 breast carcinoma cells (estrogen-sensitive), MCF7, 72 h, IC50 > 50 µM means inactive, read-out: Cytotoxic activity IC50. The method, then: as §1, §2, §3, §4, §5, §6, §7
The nature of data set [4]: Calcein AM cytotoxicity assay, HeLa. The format is cell-based. The conditions noted are these: human, HeLa cervical carcinoma cells, IC50 > 50 µM means inactive, read-out: Cytotoxic activity IC50. As to the method:
as §1, §2, §3, §4, §5, §6, §7

Data set [5] can be described thus: Calcein AM cytotoxicity assay, BJ. The format is cell-based. The conditions noted are these: human, BJ foreskin fibroblasts (normal cell line), IC50 > 50 µM means inactive, read-out: Cytotoxic activity IC50. The method, then:
as §1, §2, §3, §4, §5, §6, §7

The mark [6] stands for this setting: 100 nM (only selected compounds), control 14.61 ± 0.85.

Entries after “also recorded” stand apart in the source; their conditions may differ. Structures can show the parent of a compound that is named as a salt.

Take `C[C@H](C(=O)N1CCCC1)[C@H]1CC[C@H]2[C@@H]3CC(=O)[C@H]4C[C@H](O)[C@H](O)C[C@]4(C)[C@H]3CC[C@]12C` [8c, 1-((20S)-2α,3α-dihydroxy-6-oxo-5α-pregnane-20-carbonyl)pyrrolidine]: the melting point was > 180 °C (dec.). Besides, in data set [1] (0.1 nM, control 16.3 ± 1.21), the “root length, mean” value is given as 17.61 mm. Moreover, the “root length, mean” value in data set [1] (1 nM, control 16.3 ± 1.21) is recorded as 18.58 mm. The “root length, mean” value in data set [1] (10 nM, control 16.3 ± 1.21) worked out at 15.97 mm. In addition, the IC50 at 72 h in data set [2] is over 50 µM. Besides, the IC50 at 72 h in data set [3] was over 50 µM. Also, the IC50 at 72 h in data set [4] was over 50 µM. In addition, in data set [5], the concentration for half-maximal inhibition (IC50) at 72 h was over 50 µM.
In the case of `C[C@H](CN1CCOCC1)[C@H]1CCC2C3CC(=O)[C@H]4C[C@H](O)[C@H](O)C[C@]4(C)C3CC[C@@]21C` (stereo partly drawn) [16e, 4-((20S)-2α,3α-dihydroxy-6-oxo-5α-pregnane-20-methyl)morpholin-4-ium chloride], the “root length, mean” value in data set [1] (0.1 nM, control 16.3 ± 1.21) came out at 17.21 mm; in data set [1] (1 nM, control 16.3 ± 1.21), 17.61 mm; in data set [1] (10 nM, control 16.3 ± 1.21), 16.13 mm; in data set [1] (setting [6]) it was 13.771 mm. For the same compound, the “elongation of roots (growth-promoting activity) compared to the control” value in data set [1] (low concentrations (0.1 and 1 nM)) was “slight elongation of roots; also recorded: interesting growth-promoting activity”. For the same compound, the IC50 at 72 h in data set [2], in data set [3], in data set [4] and in data set [5] was over 50 µM in each case.
For `C[C@H](CN1CCCCC1)[C@H]1CCC2C3CC(=O)[C@H]4C[C@H](O)[C@H](O)C[C@]4(C)C3CC[C@@]21C` (stereo partly drawn) (as salt: chloride) [16d, 1-((20S)-2α,3α-dihydroxy-6-oxo-5α-pregnane-20-methyl)piperidin-1-ium chloride], the melting point is > 280 °C (dec.).
`C[C@H](CN1CCOCC1)[C@H]1CCC2C3CC(=O)[C@H]4C[C@H](O)[C@H](O)C[C@]4(C)C3CC[C@@]21C` (stereo partly drawn) (as salt: chloride) [16e, 4-((20S)-2α,3α-dihydroxy-6-oxo-5α-pregnane-20-methyl)morpholin-4-ium chloride]: the melting point was > 240 °C (dec.).
In the case of `C[C@H](CN(C)C)[C@H]1CCC2C3CC(=O)[C@H]4C[C@H](O)[C@H](O)C[C@]4(C)C3CC[C@@]21C` (stereo partly drawn) [16a, N,N-dimethyl-((20S)-2α,3α-dihydroxy-6-oxo-5α-pregnane-20-methyl)aminium chloride], the “root length, mean” value in data set [1] (0.1 nM, control 16.3 ± 1.21) is listed as 18.91 mm; in data set [1] (1 nM, control 16.3 ± 1.21) it was 15.64 mm; in data set [1] (10 nM, control 16.3 ± 1.21) it was 15.32 mm; in data set [1] (setting [6]) it was 13.626 mm. Also, the IC50 at 72 h in data set [2], in data set [3], in data set [4] and in data set [5] was over 50 µM each time.
In the case of `CCN(CC)C[C@@H](C)[C@H]1CCC2C3CC(=O)[C@H]4C[C@H](O)[C@H](O)C[C@]4(C)C3CC[C@@]21C` (stereo partly drawn) [16b, N,N-diethyl-((20S)-2α,3α-dihydroxy-6-oxo-5α-pregnane-20-methyl)aminium chloride], the “root length, mean” value in data set [1] (0.1 nM, control 16.3 ± 1.21) was determined as 17.27 mm; in data set [1] (1 nM, control 16.3 ± 1.21), 17.61 mm; in data set [1] (10 nM, control 16.3 ± 1.21), 16.13 mm. Further, the IC50 at 72 h in data set [2], in data set [3], in data set [4] and in data set [5] was over 50 µM throughout.
`C[C@H](CN(C)C)[C@H]1CCC2C3CC(=O)[C@H]4C[C@H](O)[C@H](O)C[C@]4(C)C3CC[C@@]21C` (stereo partly drawn) (as salt: chloride) [16a, N,N-dimethyl-((20S)-2α,3α-dihydroxy-6-oxo-5α-pregnane-20-methyl)aminium chloride]: the melting point is > 290 °C (dec.).
As for `C[C@H](CN1CCCCC1)[C@H]1CCC2C3CC(=O)[C@H]4C[C@H](O)[C@H](O)C[C@]4(C)C3CC[C@@]21C` (stereo partly drawn) [16d, 1-((20S)-2α,3α-dihydroxy-6-oxo-5α-pregnane-20-methyl)piperidin-1-ium chloride], the “root length, mean” value in data set [1] (0.1 nM, control 16.3 ± 1.21) turned out to be 15.32 mm; in data set [1] (1 nM, control 16.3 ± 1.21), 15.65 mm; in data set [1] (10 nM, control 16.3 ± 1.21) it was 17.61 mm. For the same compound, the IC50 at 72 h in data set [2], in data set [3], in data set [4] and in data set [5] was over 50 µM each time.
As to `C[C@H](CN1CCCC1)[C@H]1CCC2C3CC(=O)[C@H]4C[C@H](O)[C@H](O)C[C@]4(C)C3CC[C@@]21C` (stereo partly drawn) [16c, 1-((20S)-2α,3α-dihydroxy-6-oxo-5α-pregnane-20-methyl)pyrrolidin-1-ium chloride], the “root length, mean” value in data set [1] (0.1 nM, control 16.3 ± 1.21) is 15.97 mm; in data set [1] (1 nM, control 16.3 ± 1.21) it was 14.99 mm; in data set [1] (10 nM, control 16.3 ± 1.21), 15.16 mm. The IC50 at 72 h in data set [2], in data set [3], in data set [4] and in data set [5] was over 50 µM in each case.
Regarding `CC(C)[C@@H](C)[C@@H](O)[C@H](O)[C@@H](C)[C@H]1CC[C@H]2[C@@H]3COC(=O)[C@H]4C[C@H](O)[C@H](O)C[C@]4(C)[C@H]3CC[C@]12C` [24-epiBL, 24-epibrassinolide, reference compound], the “root length, mean” value is given as 15.811 mm in data set [1] (0.1 nM, control 16.3 ± 1.21); 13.855 mm in data set [1] (1 nM, control 16.3 ± 1.21); 7.342 mm in data set [1] (10 nM, control 16.3 ± 1.21); 6.685 mm in data set [1] (setting [6]). Besides, in data set [1] (light-grown seedlings, positive control), the “concentration inhibiting Arabidopsis root growth” value is recorded as at least 1 nM.
With `CCN(CC)C[C@@H](C)[C@H]1CCC2C3CC(=O)[C@H]4C[C@H](O)[C@H](O)C[C@]4(C)C3CC[C@@]21C` (stereo partly drawn) (as salt: chloride) [16b, N,N-diethyl-((20S)-2α,3α-dihydroxy-6-oxo-5α-pregnane-20-methyl)aminium chloride], the melting point is > 270 °C (dec.).
Still for that read-out and setting: for `C[C@H](CN1CCCC1)[C@H]1CCC2C3CC(=O)[C@H]4C[C@H](O)[C@H](O)C[C@]4(C)C3CC[C@@]21C` (stereo partly drawn) (as salt: chloride) [16c, 1-((20S)-2α,3α-dihydroxy-6-oxo-5α-pregnane-20-methyl)pyrrolidin-1-ium chloride] the value was > 260 °C (dec.).

The term IC50 denotes the concentration needed to halve the response being measured. Usually melting point stands for the temperature of the solid-liquid transition.

Values taken from article PMC7795425, “Synthesis and Biological Activity of Brassinosteroid Analogues with a Nitrogen-Containing Side Chain” (International Journal of Molecular Sciences, 2020).
